Measurements: ChEMBL document CHEMBL4387793, “Styrenes from the Seeds of Atalantia monophylla” (J Nat Prod, 2019)

Key:
HepG2 = assay: Cytotoxicity against human HepG2 cells by SRB assay; assay type: functional, cell-based
[1] = Cytotoxicity against human KKU-M156 cells by SRB assay; assay type: functional, cell-based

| SMILES | IC50 (HepG2) [µM] | IC50 [1] [µM] |
| --- | --- | --- |
| COc1cc(OC)c([C@H]2CC[C@H]2c2c(OC)cc(OC)cc2OC)c(OC)c1 | < 10 | < 10 |
| COc1cc(OC)c(/C=C/[C@H](C)c2c(OC)cc(OC)cc2OC)c(OC)c1 | < 10 | < 10 |
| COc1cc(OC)c2c(c1)O[C@@H](c1c(OC)cc(OC)cc1OC)C[C@@H]2C | < 10 | < 10 |
| COc1cc(OC)c2c(c1)O[C@@H](c1c(O)cc(OC)cc1OC)C[C@@H]2C | < 10 | < 10 |
